Measurements as given in PubChem BioAssay (NCI).
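Briefly, cells in 96-well plates were exposed to five compound concentrations for 48 h, and endpoints were estimated by linear interpolation. GI50 is the concentration that inhibits growth by half. TGI denotes the concentration required for complete inhibition of growth.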

Tests used:
Assay in all cases: growth of human tumour cells (NCI), 48 h
[1] = tested on: KM12 colon
[2] = tested on: NCI-H460 lung
[3] = tested on: SF-295 CNS
[4] = tested on: UACC-257 melanoma
[5] = tested on: EKVX NSCLC
[6] = tested on: HOP-62 NSCLC
[7] = tested on: SNB-19 CNS
[8] = tested on: CAKI-1 renal
[9] = tested on: A549 NSCLC
[10] = tested on: SW-620 colon

| Structure (SMILES) | TGI [1] | TGI [2] | TGI [3] | TGI [4] | TGI [5] | TGI [6] | TGI [7] | TGI [8] | TGI [9] | TGI [10] | GI50 [1] | GI50 [2] | GI50 [3] | GI50 [4] | GI50 [5] | GI50 [6] | GI50 [7] | GI50 [8] | GI50 [9] | GI50 [10] |
| --- | --- | --- | --- | --- | --- | --- | --- | --- | --- | --- | --- | --- | --- | --- | --- | --- | --- | --- | --- | --- |
| CC(C)=CCC/C(C)=C/CCC1(C)C=Cc2c(c3ccccc3oc2=O)O1 (stereo not given) | 33.2 µM | 30.1 µM | 33.9 µM | 31.2 µM | 33.9 µM | 17.8 µM | 37.7 µM | 33 µM | 33.2 µM | 33.7 µM | – | – | – | – | – | – | – | – | – | – |
| c1ccc2cc3c(cc2c1)OP1(Oc2cccc4cccnc24)(O3)Oc2cc3ccccc3cc2O1 | 21.8 µM | 12.3 µM | > 58.9 µM | 8.94 µM | > 57.3 µM | > 73.3 µM | > 100 µM | 20.6 µM | > 100 µM | > 50.2 µM | – | – | – | – | – | – | – | – | – | – |
| OC1COC(OCc2ccccc2)C(O)C1O (stereo not given) | > 100 µM | > 100 µM | > 100 µM | > 100 µM | > 100 µM | > 100 µM | > 100 µM | > 100 µM | > 100 µM | > 100 µM | – | – | – | – | – | – | – | – | – | – |
| O=C(O)C12CC3CC(C1)C2C=C3P(=O)(O)O (stereo not given) | > 100 µM | > 100 µM | > 100 µM | > 100 µM | > 100 µM | > 100 µM | – | > 100 µM | – | > 100 µM | – | – | – | – | – | – | – | – | – | – |
| CC1SC(c2ccc(Cl)cc2)N(CCc2cccs2)C1=O (stereo not given) | 3.36 µM | 3.26 µM | 2.53 µM | 4.23 µM | 4.47 µM | 3.16 µM | 3.31 µM | 3.42 µM | 7.41 µM | 3.22 µM | 1.52 µM | 1.56 µM | 1.23 µM | 1.99 µM | 1.3 µM | 1.61 µM | 1.65 µM | 1.15 µM | 2.07 µM | 1.54 µM |
| COCCOCOC(C)(C)[C@H](CCO)O[Si](c1ccccc1)(c1ccccc1)C(C)(C)C | 31.9 µM | 22.3 µM | 18.6 µM | 23.5 µM | 29.5 µM | – | 31.7 µM | – | 22.1 µM | 25.2 µM | – | – | – | – | – | – | – | – | – | – |
| Cc1cccc(CNc2ncnc3[nH]ncc23)c1 | > 100 µM | > 100 µM | > 100 µM | > 100 µM | > 100 µM | > 100 µM | > 100 µM | > 100 µM | > 100 µM | > 100 µM | – | – | – | – | – | – | – | – | – | – |
| C=CCNC(=O)CN(CC(=O)OC)C1CCCCC1N(CC(=O)OC)CC(=O)OC (stereo not given) | > 100 µM | > 100 µM | > 100 µM | > 100 µM | > 100 µM | > 100 µM | > 100 µM | > 100 µM | > 100 µM | > 100 µM | – | – | – | – | – | – | – | – | – | – |
| O=C1c2ccccc2C(=O)c2c1cc1c(c2[N+](=O)[O-])OCO1 | 5.94 µM | 7.06 µM | 8.82 µM | 41.5 µM | 9.8 µM | 5.19 µM | 14.4 µM | 4.51 µM | 21.9 µM | 11.5 µM | 1.45 µM | 2.11 µM | 2.27 µM | 11.8 µM | 2.92 µM | 1.74 µM | 2.55 µM | 0.556 µM | 4.94 µM | 0.68 µM |
| Cc1cn(C2CC(O)C(Cn3nncc3Cn3ncc(=O)[nH]c3=O)O2)c(=O)[nH]c1=O (stereo not given) | > 100 µM | – | > 100 µM | > 100 µM | > 100 µM | > 100 µM | > 100 µM | > 100 µM | > 100 µM | > 100 µM | – | – | – | – | – | – | – | – | – | – |
| Nc1n[nH]c(CCCCCCCc2nc(N)n[nH]2)n1 | > 100 µM | > 100 µM | – | > 100 µM | > 100 µM | > 100 µM | > 100 µM | – | – | – | – | – | – | – | – | – | – | – | – | – |
| COc1cc(C(=O)C2CC3(CCC2(O)c2cc(OC)c(OC)c(OC)c2)CC(=O)Nc2ccccc2C3=O)cc(OC)c1OC (stereo not given) | – | 50.7 µM | > 100 µM | > 100 µM | > 100 µM | > 100 µM | > 100 µM | > 100 µM | > 100 µM | > 100 µM | – | – | – | – | – | – | – | – | – | – |
| COc1cc(/C=C/C2=C(C#N)C(=O)OC2(C)C)ccc1O | > 100 µM | > 100 µM | > 100 µM | > 100 µM | > 100 µM | > 100 µM | > 100 µM | > 100 µM | > 100 µM | > 100 µM | – | – | – | – | – | – | – | – | – | – |
| Cc1c(C2=NN=C(N=Nc3c(O)cccc3O)/C2=C/c2ccccc2)c(=O)n(-c2ccccc2)n1C | > 100 µM | > 100 µM | > 100 µM | > 100 µM | > 100 µM | > 100 µM | > 100 µM | > 100 µM | > 100 µM | > 100 µM | – | – | – | – | – | – | – | – | – | – |
| CC(C)=CC(=O)OC1C2C(C)=CC(O)C(O)C2(C)C2C3(O)OCC24C(CC(=O)OC14)C(C)C3O (stereo not given) | 0.622 µM | 0.337 µM | 0.81 µM | 2.43 µM | 0.642 µM | 0.683 µM | 0.519 µM | 13.9 µM | 9.68 µM | 4.81 µM | – | – | – | – | – | – | – | – | – | – |
